A value given as a limit tells only on which side of the number the result lay.

The assay concerns the target T1, human PAH with the R408W mutation (Homo sapiens, UniProt P00439, R408W).
T1 construct: expressed in transfected cells
T1 sequence (P00439 1-452 R408W): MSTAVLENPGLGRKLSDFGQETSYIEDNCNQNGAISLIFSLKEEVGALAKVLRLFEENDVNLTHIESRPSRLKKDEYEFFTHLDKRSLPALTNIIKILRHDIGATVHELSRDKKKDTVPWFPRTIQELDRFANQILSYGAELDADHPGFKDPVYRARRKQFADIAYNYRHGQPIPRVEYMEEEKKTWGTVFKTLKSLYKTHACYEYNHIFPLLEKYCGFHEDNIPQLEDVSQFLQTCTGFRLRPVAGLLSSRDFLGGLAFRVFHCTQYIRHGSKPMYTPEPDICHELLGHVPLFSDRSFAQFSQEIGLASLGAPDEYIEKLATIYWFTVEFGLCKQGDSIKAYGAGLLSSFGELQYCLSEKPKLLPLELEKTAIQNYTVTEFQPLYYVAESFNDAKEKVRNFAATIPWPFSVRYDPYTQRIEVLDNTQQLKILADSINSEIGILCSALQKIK
The assay is described as follows: Cell Based Phenylalanine Flux Assay.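 Further: after compound treatment, cells received sepiapterin plus isotope-labelled Phenylalanine for 4 hours, then labelled Tyrosine in the medium was quantified, 10-point 2-fold dilution series run in duplicate.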 Particulars: A375 cells expressing human R408W PAH; 24 hrs compound incubation; 13C-Tyrosine by LC-MS; average where tested multiple times; read-out: AC50.
With `Cc1c(-c2nnc(C(=O)N3CCc4[nH]cnc4[C@H]3c3cc4cccc(Cl)n4n3)o2)cnn1C` [Example 1208, (S)-(4-(7-chloropyrazolo[1,5-a]pyridin-2-yl)-6,7-dihydro-1H-imidazo[4,5-c]pyridin-5(4H)-yl)(5-(1,5-dimethyl-1H-pyrazol-4-yl)-1,3,4-oxadiazol-2-yl)methanone], the half-maximal activity concentration (AC50) was < 500 nM.

For `Cc1c(-c2nnc(C(=O)N3CCc4[nH]cnc4[C@@H]3c3cc4cccc(Cl)n4n3)o2)cnn1C` [Example 1209, (R)-(4-(7-chloropyrazolo[1,5-a]pyridin-2-yl)-6,7-dihydro-1H-imidazo[4,5-c]pyridin-5(4H)-yl)(5-(1,5-dimethyl-1H-pyrazol-4-yl)-1,3,4-oxadiazol-2-yl)methanone], the concentration at half-maximal activity (AC50) is > 5000 nM.

Regarding `Cc1nc(C(C)(C)O)oc1C(=O)N1CCc2[nH]cnc2[C@H]1c1cc2cccc(Cl)n2n1` [Example 1210, (S)-(4-(7-chloropyrazolo[1,5-a]pyridin-2-yl)-6,7-dihydro-1H-imidazo[4,5-c]pyridin-5(4H)-yl)(2-(2-hydroxypropan-2-yl)-4-methyloxazol-5-yl)methanone], the AC50 fell in the range of 500 to 1000 nM.

Consider `Cc1nc([C@H](C)O)oc1C(=O)N1CCc2[nH]cnc2[C@H]1c1cc2cccc(Cl)n2n1` [Example 1212, ((S)-4-(7-chloropyrazolo[1,5-a]pyridin-2-yl)-6,7-dihydro-1H-imidazo[4,5-c]pyridin-5(4H)-yl)(2-((S)-1-hydroxyethyl)-4-methyloxazol-5-yl)methanone], for which the concentration at half-maximal activity (AC50) fell in the range of 500 to 1000 nM.

Regarding `Cc1c(-c2nnc(C(=O)N3CCc4[nH]cnc4[C@@H]3c3cc4c(Cl)cccn4n3)o2)cnn1C` [Example 1215, (R)-(4-(4-chloropyrazolo[1,5-a]pyridin-2-yl)-6,7-dihydro-1H-imidazo[4,5-c]pyridin-5(4H)-yl)(5-(1,5-dimethyl-1H-pyrazol-4-yl)-1,3,4-oxadiazol-2-yl)methanone], the AC50 was > 5000 nM.

With `Cc1cccn2nc([C@H]3c4nc[nH]c4CCN3C(=O)c3oc(C(C)(C)F)nc3C(F)F)cc12` [Example 1217, (R)-(4-(difluoromethyl)-2-(2-fluoropropan-2-yl)oxazol-5-yl)(4-(4-methylpyrazolo[1,5-a]pyridin-2-yl)-6,7-dihydro-1H-imidazo[4,5-c]pyridin-5(4H)-yl)methanone], the half-maximal activity concentration (AC50) was < 500 nM.

Regarding `CC(C)(F)c1nc(C(F)F)c(C(=O)N2CCc3[nH]cnc3[C@@H]2c2cc3c(C(F)(F)F)cccn3n2)o1` [Example 1219, (R)-(4-(difluoromethyl)-2-(2-fluoropropan-2-yl)oxazol-5-yl)(4-(4-(trifluoromethyl)pyrazolo[1,5-a]pyridin-2-yl)-6,7-dihydro-1H-imidazo[4,5-c]pyridin-5(4H)-yl)methanone], the AC50 lay in the range of 500 to 1000 nM.

Take `Cc1cccn2nc([C@H]3c4nc[nH]c4CCN3C(=O)c3oc(C4(O)CC4)nc3C(F)F)cc12` [Example 1221, (R)-(4-(difluoromethyl)-2-(1-hydroxycyclopropyl)oxazol-5-yl)(4-(4-methylpyrazolo[1,5-a]pyridin-2-yl)-6,7-dihydro-1H-imidazo[4,5-c]pyridin-5(4H)-yl)methanone]: the AC50 was in the range of 1000 to 5000 nM.

As for `O=C(c1oc(C2(O)CC2)nc1C(F)F)N1CCc2[nH]cnc2[C@H]1c1cc2c(C(F)(F)F)cccn2n1` [Example 1222, (S)-(4-(difluoromethyl)-2-(1-hydroxycyclopropyl)oxazol-5-yl)(4-(4-(trifluoromethyl)pyrazolo[1,5-a]pyridin-2-yl)-6,7-dihydro-1H-imidazo[4,5-c]pyridin-5(4H)-yl)methanone], the AC50 is < 500 nM.

Turning to `O=C(c1oc(C2(O)CC2)nc1C(F)F)N1CCc2[nH]cnc2[C@@H]1c1cc2c(C(F)(F)F)cccn2n1` [Example 1223, (R)-(4-(difluoromethyl)-2-(1-hydroxycyclopropyl)oxazol-5-yl)(4-(4-(trifluoromethyl)pyrazolo[1,5-a]pyridin-2-yl)-6,7-dihydro-1H-imidazo[4,5-c]pyridin-5(4H)-yl)methanone], the half-maximal activity concentration (AC50) is 1000 to 5000 nM.

For `Cn1cc(-c2nnc(C(=O)N3CCc4[nH]cnc4[C@@H]3c3cc4cccc(F)n4n3)o2)cn1` [Example 1225, (R)-(4-(7-fluoropyrazolo[1,5-a]pyridin-2-yl)-6,7-dihydro-1H-imidazo[4,5-c]pyridin-5(4H)-yl)(5-(1-methyl-1H-pyrazol-4-yl)-1,3,4-oxadiazol-2-yl)methanone], the AC50 is 1000 to 5000 nM.

For the compound `CC(C)(F)c1nc(C(F)F)c(C(=O)N2CCc3[nH]cnc3[C@H]2c2cc3c(F)cccn3n2)o1` [Example 1226, (S)-(4-(difluoromethyl)-2-(2-fluoropropan-2-yl)oxazol-5-yl)(4-(4-fluoropyrazolo[1,5-a]pyridin-2-yl)-6,7-dihydro-1H-imidazo[4,5-c]pyridin-5(4H)-yl)methanone], the AC50 was < 500 nM.

As for `CC(C)(F)c1nc(C(F)F)c(C(=O)N2CCc3[nH]cnc3[C@@H]2c2cc3c(F)cccn3n2)o1` [Example 1227, (R)-(4-(difluoromethyl)-2-(2-fluoropropan-2-yl)oxazol-5-yl)(4-(4-fluoropyrazolo[1,5-a]pyridin-2-yl)-6,7-dihydro-1H-imidazo[4,5-c]pyridin-5(4H)-yl)methanone], the AC50 was in the range of 500 to 1000 nM.

As for `CC(C)(F)c1nc(C(F)F)c(C(=O)N2CCc3[nH]cnc3[C@@H]2c2cc3c(Cl)cccn3n2)o1` [Example 1229, (R)-(4-(4-chloropyrazolo[1,5-a]pyridin-2-yl)-6,7-dihydro-1H-imidazo[4,5-c]pyridin-5(4H)-yl)(4-(difluoromethyl)-2-(2-fluoropropan-2-yl)oxazol-5-yl)methanone], the AC50 fell in the range of 500 to 1000 nM.

For the compound `Cc1cccc2cc([C@@H]3c4nc[nH]c4CCN3C(=O)c3oc(C(C)(C)F)nc3C(F)F)nn12` [Example 1230, (S)-(4-(difluoromethyl)-2-(2-fluoropropan-2-yl)oxazol-5-yl)(4-(7-methylpyrazolo[1,5-a]pyridin-2-yl)-6,7-dihydro-1H-imidazo[4,5-c]pyridin-5(4H)-yl)methanone], the AC50 was < 500 nM.

As for `Cc1cccc2cc([C@H]3c4nc[nH]c4CCN3C(=O)c3oc(C(C)(C)F)nc3C(F)F)nn12` [Example 1231, (R)-(4-(difluoromethyl)-2-(2-fluoropropan-2-yl)oxazol-5-yl)(4-(7-methylpyrazolo[1,5-a]pyridin-2-yl)-6,7-dihydro-1H-imidazo[4,5-c]pyridin-5(4H)-yl)methanone], the AC50 is 1000 to 5000 nM.

For the compound `CC(C)(F)c1nc(C(F)F)c(C(=O)N2CCc3[nH]cnc3[C@H]2c2cc3cccc(Cl)n3n2)o1` [Example 1232, (S)-(4-(7-chloropyrazolo[1,5-a]pyridin-2-yl)-6,7-dihydro-1H-imidazo[4,5-c]pyridin-5(4H)-yl)(4-(difluoromethyl)-2-(2-fluoropropan-2-yl)oxazol-5-yl)methanone], the AC50 is < 500 nM.

As for `CC(C)(F)c1nc(C(F)F)c(C(=O)N2CCc3[nH]cnc3[C@@H]2c2cc3cccc(Cl)n3n2)o1` [Example 1233, (R)-(4-(7-chloropyrazolo[1,5-a]pyridin-2-yl)-6,7-dihydro-1H-imidazo[4,5-c]pyridin-5(4H)-yl)(4-(difluoromethyl)-2-(2-fluoropropan-2-yl)oxazol-5-yl)methanone], the AC50 lay in the range of 1000 to 5000 nM.

For `O=C(c1oc(C2(O)CC2)nc1C(F)F)N1CCc2[nH]cnc2[C@H]1c1cc2c(F)cccn2n1` [Example 1234, (S)-(4-(difluoromethyl)-2-(1-hydroxycyclopropyl)oxazol-5-yl)(4-(4-fluoropyrazolo[1,5-a]pyridin-2-yl)-6,7-dihydro-1H-imidazo[4,5-c]pyridin-5(4H)-yl)methanone], the AC50 is < 500 nM.

For the compound `O=C(c1oc(C2(O)CC2)nc1C(F)F)N1CCc2[nH]cnc2[C@@H]1c1cc2c(F)cccn2n1` [Example 1235, (R)-(4-(difluoromethyl)-2-(1-hydroxycyclopropyl)oxazol-5-yl)(4-(4-fluoropyrazolo[1,5-a]pyridin-2-yl)-6,7-dihydro-1H-imidazo[4,5-c]pyridin-5(4H)-yl)methanone], the AC50 was 1000 to 5000 nM.

As for `O=C(c1oc(C2(O)CC2)nc1C(F)F)N1CCc2[nH]cnc2[C@H]1c1cc2cccc(Cl)n2n1` [Example 1236, (S)-(4-(7-chloropyrazolo[1,5-a]pyridin-2-yl)-6,7-dihydro-1H-imidazo[4,5-c]pyridin-5(4H)-yl)(4-(difluoromethyl)-2-(1-hydroxycyclopropyl)oxazol-5-yl)methanone], the AC50 is < 500 nM.

`O=C(c1oc(C2(O)CC2)nc1C(F)F)N1CCc2[nH]cnc2[C@@H]1c1cc2cccc(Cl)n2n1` [Example 1237, (R)-(4-(7-chloropyrazolo[1,5-a]pyridin-2-yl)-6,7-dihydro-1H-imidazo[4,5-c]pyridin-5(4H)-yl)(4-(difluoromethyl)-2-(1-hydroxycyclopropyl)oxazol-5-yl)methanone]: the AC50 lay within 1000 to 5000 nM.

On to `CC(C)(O)c1nc(C(F)F)c(C(=O)N2CCc3[nH]cnc3[C@H]2c2cc3cccc(F)n3n2)o1` [Example 1238, (S)-(4-(difluoromethyl)-2-(2-hydroxypropan-2-yl)oxazol-5-yl)(4-(7-fluoropyrazolo[1,5-a]pyridin-2-yl)-6,7-dihydro-1H-imidazo[4,5-c]pyridin-5(4H)-yl)methanone], for which the concentration at half-maximal activity (AC50) was < 500 nM.

For the compound `CC(C)(O)c1nc(C(F)F)c(C(=O)N2CCc3[nH]cnc3[C@@H]2c2cc3cccc(F)n3n2)o1` [Example 1239, (R)-(4-(difluoromethyl)-2-(2-hydroxypropan-2-yl)oxazol-5-yl)(4-(7-fluoropyrazolo[1,5-a]pyridin-2-yl)-6,7-dihydro-1H-imidazo[4,5-c]pyridin-5(4H)-yl)methanone], the concentration at half-maximal activity (AC50) was in the range of 1000 to 5000 nM.

Usually AC50 stands for the concentration at which the activity in the assay is half-maximal.

Values taken from patent US20230365592A1 (Agios Pharmaceuticals, Inc., priority 2022, published 2023).
